Laboratory results taken from the supplement of paper PMC10307832.

Columns and labels:
Assay in all cases: relative viability (nuclei count vs DMSO), 5 days (fraction); higher = more cells survive
AT9283 + Pemetrexed = compound: O=C(Nc1c[nH]nc1-c1nc2ccc(CN3CCOCC3)cc2[nH]1)NC1CC1 [AT9283] + Nc1nc2[nH]cc(CCc3ccc(C(=O)N[C@@H](CCC(=O)O)C(=O)O)cc3)c2c(=O)[nH]1 [Pemetrexed] (partner 0.2 µM)
In short: (§1)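 Each reported value is a median over duplicate plates. It expresses relative viability: treated-well nuclei count divided by vehicle-well nuclei count. Lung cancer cell lines in 1536-well plates were dosed by pin tool a day after seeding, alone with one drug or with a fixed anchor-drug dose plus five library-drug doses (not always all listed) in √10 steps, and nuclei were counted after 5 days.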

Erlotinib + Phenformin = compound: C#Cc1cccc(Nc2ncnc3cc(OCCOC)c(OCCOC)cc23)c1 [Erlotinib] + N=C(N)NC(=N)NCCc1ccccc1 [Phenformin] (partner 250 µM)
In short: as §1

AT9283 + OSI-027 = compound: O=C(Nc1c[nH]nc1-c1nc2ccc(CN3CCOCC3)cc2[nH]1)NC1CC1 [AT9283] + COc1cccc2cc(-c3nc([C@H]4CC[C@H](C(=O)O)CC4)n4ncnc(N)c34)[nH]c12 [OSI-027] (partner 0.5 µM)
In short: as §1

AT9283 + Phenformin = compound: O=C(Nc1c[nH]nc1-c1nc2ccc(CN3CCOCC3)cc2[nH]1)NC1CC1 [AT9283] + N=C(N)NC(=N)NCCc1ccccc1 [Phenformin] (partner 250 µM)
In short: as §1

Erlotinib + Luminespib = compound: C#Cc1cccc(Nc2ncnc3cc(OCCOC)c(OCCOC)cc23)c1 [Erlotinib] + CCNC(=O)c1noc(-c2cc(C(C)C)c(O)cc2O)c1-c1ccc(CN2CCOCC2)cc1 [Luminespib] (partner 0.01 µM)
In short: as §1

| Cell Line | relative viability (AT9283 + Pemetrexed; first compound 0.003 µM) | relative viability (AT9283 + Pemetrexed; first compound 0.03 µM) | relative viability (AT9283 + Pemetrexed; first compound 0.09487 µM) | relative viability (AT9283 + Pemetrexed; first compound 0.3 µM) | relative viability (Erlotinib + Phenformin; first compound 0.02 µM) | relative viability (Erlotinib + Phenformin; first compound 0.2 µM) | relative viability (Erlotinib + Phenformin; first compound 0.6325 µM) | relative viability (Erlotinib + Phenformin; first compound 2 µM) | relative viability (AT9283 + OSI-027; first compound 0.003 µM) | relative viability (AT9283 + OSI-027; first compound 0.03 µM) | relative viability (AT9283 + OSI-027; first compound 0.09487 µM) | relative viability (AT9283 + OSI-027; first compound 0.3 µM) | relative viability (AT9283 + Phenformin; first compound 0.003 µM) | relative viability (AT9283 + Phenformin; first compound 0.03 µM) | relative viability (AT9283 + Phenformin; first compound 0.09487 µM) | relative viability (AT9283 + Phenformin; first compound 0.3 µM) | relative viability (Erlotinib + Luminespib; first compound 0.02 µM) | relative viability (Erlotinib + Luminespib; first compound 0.2 µM) | relative viability (Erlotinib + Luminespib; first compound 0.6325 µM) | relative viability (Erlotinib + Luminespib; first compound 2 µM) |
| --- | --- | --- | --- | --- | --- | --- | --- | --- | --- | --- | --- | --- | --- | --- | --- | --- | --- | --- | --- | --- |
| EKVX | 0.436 | 0.352 | 0.211 | 0.204 | 0.245 | 0.205 | 0.127 | 0.137 | 0.661 | 0.655 | 0.503 | 0.26 | 0.237 | 0.223 | 0.212 | 0.196 | 0.833 | 0.615 | 0.444 | 0.207 |
| LC-2-ad | 0.258 | 0.253 | 0.219 | 0.164 | 0.566 | 0.643 | 0.592 | 0.534 | 0.766 | 0.476 | 0.249 | 0.229 | 0.449 | 0.363 | 0.224 | 0.193 | 1.13 | 0.976 | 1.17 | 0.745 |
| HCC-15 | 0.223 | 0.208 | 0.143 | 0.159 | 0.472 | 0.491 | 0.63 | 0.382 | 0.61 | 0.412 | 0.153 | 0.157 | 0.464 | 0.277 | 0.106 | 0.117 | 0.241 | 0.376 | 0.236 | 0.208 |
| PC-3 [JPC-3] | 0.966 | 1.06 | 0.717 | 0.568 | 0.445 | 0.367 | 0.268 | 0.291 | 0.741 | 0.791 | 0.591 | 0.517 | 0.478 | 0.476 | 0.423 | 0.377 | 0.64 | 0.363 | 0.406 | 0.306 |
| ChaGo-K-1 | 0.239 | 0.247 | 0.188 | 0.166 | 0.507 | 0.445 | 0.482 | 0.437 | 0.54 | 0.575 | 0.279 | 0.189 | 0.476 | 0.341 | 0.235 | 0.204 | 0.635 | 0.541 | 0.604 | 0.505 |
| LK-2 | 0.196 | 0.135 | 0.136 | 0.105 | 0.623 | 0.275 | 0.513 | 0.39 | 0.2 | 0.151 | 0.156 | 0.143 | 0.516 | 0.156 | 0.136 | 0.175 | 0.151 | 0.166 | 0.203 | 0.15 |
| LOU-NH91 | 0.406 | 0.385 | 0.331 | 0.351 | 0.449 | 0.481 | 0.44 | 0.473 | 0.697 | 0.698 | 0.599 | 0.388 | 0.658 | 0.673 | 0.454 | 0.371 | 0.412 | 0.297 | 0.364 | 0.31 |
